PubChem BioAssay (NCI)
Several values for one entry are separate records, joined by “and”; a condition that tells them apart may be missing. Equal entries are not always repeated.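 48-hour exposure; five concentrations; linearly interpolated endpoints. GI50: concentration for 50% inhibition of growth. TGI: concentration producing complete growth inhibition.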

Experiments:
Assay in all cases: NCI anticancer screen, dose series, 48 h
KM12 colon = tested on: KM12 colon
HCT-116 colon = tested on: HCT-116 colon
EKVX NSCLC = tested on: EKVX NSCLC
A498 renal = tested on: A498 renal
MDA-MB-231 breast = tested on: MDA-MB-231 breast
OVCAR-8 ovarian = tested on: OVCAR-8 ovarian
SNB-75 CNS = tested on: SNB-75 CNS
SK-MEL-28 melanoma = tested on: SK-MEL-28 melanoma
SK-OV-3 ovarian = tested on: SK-OV-3 ovarian
SK-MEL-5 melanoma = tested on: SK-MEL-5 melanoma

| SMILES | GI50 (KM12 colon) | TGI (KM12 colon) | GI50 (HCT-116 colon) | TGI (HCT-116 colon) | GI50 (EKVX NSCLC) | TGI (EKVX NSCLC) | GI50 (A498 renal) | TGI (A498 renal) [µM] | GI50 (MDA-MB-231 breast) | TGI (MDA-MB-231 breast) | GI50 (OVCAR-8 ovarian) | TGI (OVCAR-8 ovarian) | GI50 (SNB-75 CNS) | TGI (SNB-75 CNS) | GI50 (SK-MEL-28 melanoma) | TGI (SK-MEL-28 melanoma) | GI50 (SK-OV-3 ovarian) | TGI (SK-OV-3 ovarian) | GI50 (SK-MEL-5 melanoma) | TGI (SK-MEL-5 melanoma) |
| --- | --- | --- | --- | --- | --- | --- | --- | --- | --- | --- | --- | --- | --- | --- | --- | --- | --- | --- | --- | --- |
| CCOC1Oc2ccccc2C(=O)/C1=C\Nc1ccc(C(=O)O)c(O)c1 (stereo not drawn) | 26.3 µM | 65 µM | 15.7 µM | 35.1 µM | 36.7 µM | 96.1 µM | 30.6 µM | 73.7 | 14 µM | 31.2 µM | 19.3 µM | 54 µM | 20.3 µM | 58.3 µM | 23.9 µM | 65.9 µM | 21.7 µM | 67.6 µM | 18.6 µM | 37.4 µM |
| O=C(O)CC(S)C(=O)O.[Li+].[Sb] (stereo not drawn) | > 100 µM | > 100 µM | > 100 µM | > 100 µM | > 100 µM | > 100 µM | > 100 µM | > 100 | > 100 µM | > 100 µM | > 100 µM | > 100 µM | – | – | 55.5 µM | > 100 µM | – | – | 13.7 µM | 29 µM |
| COc1ccc2[nH]cc(C3(c4c[nH]c5ccc(OC)cc45)C(=O)Nc4ccc(Cl)cc43)c2c1 | 2.52 µM | 6.33 µM | 3.63 µM | 10.7 µM | 2.16 µM | 11.9 µM | 4.94 µM | 18.7 | 2.08 µM | 5.43 µM | 3.36 µM | 18.7 µM | 1.9 µM | 14 µM | 3.1 µM | 13.1 µM | 5.42 µM | 23.4 µM | 2.56 µM | 7.57 µM |
| O=C(CS(=O)c1nc2ccccc2nc1-c1ccccc1)Nc1ccc(Cl)cc1 (stereo not drawn) | 21.7 µM | 55.2 µM | 16 µM | 33.1 µM | 29.5 µM | > 100 µM | 19 µM | 43 | 18.5 µM | 49.1 µM | 38.3 µM | > 100 µM | > 100 µM | > 100 µM | 58.9 µM | > 100 µM | 51.3 µM | > 100 µM | 15.2 µM | 30.8 µM |
| CC(=O)OCC1OC([S-])C(OC(C)=O)C(OC(C)=O)C1OC(C)=O.[Au+].c1ccc(CN2[CH-]N(Cc3ccccc3)C(c3ccccc3)=C2c2ccccc2)cc1 | 4.32 µM and 0.98 µM | 16.9 µM and 5.14 µM | 3.08 µM and 0.554 µM | 9.95 µM and 2.52 µM | 2.92 µM and 0.523 µM | 9.53 µM and 4.27 µM | – | – | 1.84 µM and 0.281 µM | 3.62 µM and 0.951 µM | 3.17 µM and 0.479 µM | 11.6 µM and 4.44 µM | 1.83 µM and 0.412 µM | 7.21 µM and 4.4 µM | 2.33 µM and 0.468 µM | 5.76 µM and 2.29 µM | – | 26.3 µM and 5.17 µM | 4.95 µM and 0.839 µM | – |
| C=C1C(=O)O[C@H]2[C@H]1CC/C(CNC(=O)C(C)c1ccc(CC(C)C)cc1)=C\CC[C@@]1(C)O[C@@H]21 (stereo partly drawn) | 2.38 µM | 5.65 µM | 1.32 µM | 2.92 µM | 1.67 µM | 3.22 µM | 2.22 µM | 8.38 | 1.96 µM | 4 µM | 1.88 µM | 5.96 µM | 1.34 µM | 2.63 µM | 1.67 µM | 3.32 µM | 12.3 µM | 24.8 µM | 1.71 µM | 3.08 µM |
| COc1cc2c(cc1OC)-c1c(c3ccc([N+](=O)[O-])cc3c(=O)n1CCCN=[N+]=[N-])C2=O | > 100 µM | > 100 µM | 31.5 µM | > 100 µM | > 100 µM | > 100 µM | 40.7 µM | > 100 | > 100 µM | > 100 µM | 40.9 µM | > 100 µM | 86.2 µM | > 100 µM | > 100 µM | > 100 µM | > 100 µM | > 100 µM | 42.6 µM | > 100 µM |
| CN(C)c1ccc2cc3c(cc2c1)Oc1ccccc1N3.[Cl][Zn][Cl] | 13.2 µM | 29.1 µM | 2.04 µM | 4.34 µM | 7.01 µM | 28.5 µM | 16.9 µM | 34.7 | 1.83 µM | 4.51 µM | 5.64 µM | > 100 µM | 11.4 µM | 24.2 µM | 2.5 µM | 7.04 µM | 17 µM | 33.3 µM | 3.16 µM | 11.9 µM |
| CC[C@H](C)[C@H](NC(=O)[C@H]1CCCCN1C)C(=O)N(C)[C@H](C[C@@H](OC(C)=O)c1nc(C(=O)NC23C4C5C2C2C3C4C52C(=O)OC)cs1)C(C)C (stereo partly drawn) | 0.00309 µM and 0.0025 µM | > 25 µM | 0.00355 µM and 0.0025 µM | 0.088 µM | 0.027 µM and 0.011 µM | > 25 µM | 0.0139 µM and 0.00317 µM | 0.133 | 0.00429 µM and 0.0025 µM | > 25 µM | 0.00204 µM and 0.0025 µM | > 25 µM | 0.00125 µM and 0.0025 µM | > 25 µM | 3.12 µM | > 25 µM | 0.0102 µM and 0.0025 µM | > 25 µM | 0.000838 µM and 0.0025 µM | 0.0241 µM and 0.0102 µM |
| C#Cc1cccc(Nc2ncnc3ccc(-c4cnc(N)nc4)cc23)c1 | 4.57 µM | 20.8 µM | 4.75 µM | 17.3 µM | 0.242 µM | 2.93 µM | – | – | 2.05 µM | 11 µM | 3.69 µM | 33.1 µM | 0.643 µM | 3.96 µM | 3.2 µM | 16 µM | 1.53 µM | 4.74 µM | 3.34 µM | 12.5 µM |
| CCCCCCCCCCCCSC1=CC(=O)C=CC1=O | 1.92 µM | 8.37 µM | 6.31 µM | > 43.3 µM | – | – | 7.96 µM | 24.3 | 5.36 µM | 17.1 µM | 1.79 µM | 32.1 µM | 1.14 µM | 6.38 µM | 13.6 µM | > 39.9 µM | 12.2 µM | > 33.4 µM | 5.54 µM | 14.3 µM |
| O=C(C(=O)c1cccnc1)c1cccnc1 | > 100 µM | > 100 µM | > 100 µM | > 100 µM | > 100 µM | > 100 µM | > 100 µM | > 100 | > 100 µM | > 100 µM | > 100 µM | > 100 µM | > 100 µM | > 100 µM | > 100 µM | > 100 µM | > 100 µM | > 100 µM | > 100 µM | > 100 µM |
